Reference: PMC6688997 (Nature Communications, 2019)

What was measured:
Experiment in all cases: Kinase assay, 1 mM ATP
Assay type in all cases: biochemical
DAPK1 = DAPK1 (Homo sapiens, UniProt P53355)
Protocol: (§1) An off-chip mobility shift assay was performed by Carna Biosciences, Inc. (Kobe, Japan), according to their product instructions. […] The IC50 values were estimated according to the four-parameter logistic model.

RON = molecular target: T1, RON (Homo sapiens, UniProt Q04912)
T1 construct: purchased Carna Biosciences
Protocol: as §1

p38δ = p38δ (Homo sapiens, UniProt O15264)
Protocol: as §1

FGFR4 = FGFR4 (Homo sapiens, UniProt P22455)
Protocol: as §1

CDK2/CycE1 = CDK2/CycE1 (Homo sapiens, UniProt P24941)
Protocol: as §1

BTK = BTK (Homo sapiens, UniProt Q06187)
Protocol: as §1

EGFR(d746-750) = molecular target: T2, EGFR(d746-750) (Homo sapiens, UniProt P00533, DEL746-750)
T2 construct: purchased Carna Biosciences
Protocol: as §1

SGK = molecular target: T3, SGK (Homo sapiens, UniProt O00141)
T3 construct: purchased Carna Biosciences
Protocol: as §1

RSK4 = molecular target: T4, RSK4 (Homo sapiens, UniProt Q9UK32)
T4 construct: purchased Carna Biosciences
Protocol: as §1

INSR = molecular target: T5, INSR (Homo sapiens, UniProt P06213)
T5 construct: purchased Carna Biosciences
Protocol: as §1

FGFR3 = molecular target: T6, FGFR3 (Homo sapiens, UniProt P22607)
T6 construct: purchased Carna Biosciences
Protocol: as §1

NEK2 = NEK2 (Homo sapiens, UniProt P51955)
Protocol: as §1

BMX = molecular target: T7, BMX (Homo sapiens, UniProt P51813)
T7 construct: purchased Carna Biosciences
Protocol: as §1

FER = molecular target: T8, FER (Homo sapiens, UniProt P16591)
T8 construct: purchased Carna Biosciences
Protocol: as §1

SRC = SRC (Homo sapiens, UniProt P12931)
Protocol: as §1

SRM = molecular target: T9, SRM (Homo sapiens, UniProt Q9H3Y6)
T9 construct: purchased Carna Biosciences
Protocol: as §1

CLK1 = CLK1 (Homo sapiens, UniProt P49759)
Protocol: as §1

AMPKα1/β1/γ1 = AMPKα1/β1/γ1 (Homo sapiens, UniProt Q13131)
Protocol: as §1

GSK3β = GSK3β (Homo sapiens, UniProt P49841)
Protocol: as §1

PKCε = molecular target: T10, PKCε (Homo sapiens, UniProt Q02156)
T10 construct: purchased Carna Biosciences
Protocol: as §1

HER2 = HER2 (Homo sapiens, UniProt P04626)
Protocol: as §1

ARG = ARG (Homo sapiens, UniProt P42684)
Protocol: as §1

CHK2 = molecular target: T11, CHK2 (Homo sapiens, UniProt O96017)
T11 construct: purchased Carna Biosciences
Protocol: as §1

ROCK1 = ROCK1 (Homo sapiens, UniProt Q13464)
Protocol: as §1

AurC = molecular target: T12, AurC (Homo sapiens, UniProt Q9UQB9)
T12 construct: purchased Carna Biosciences
Protocol: as §1

CSK = CSK (Homo sapiens, UniProt P41240)
Protocol: as §1

EPHB4 = EPHB4 (Homo sapiens, UniProt P54760)
Protocol: as §1

AXL = molecular target: T13, AXL (Homo sapiens, UniProt P30530)
T13 construct: purchased Carna Biosciences
Protocol: as §1

EGFR(L861Q) = molecular target: T14, EGFR(L861Q) (Homo sapiens, UniProt P00533, L861Q)
T14 construct: purchased Carna Biosciences
Protocol: as §1

EPHA4 = molecular target: T15, EPHA4 (Homo sapiens, UniProt P54764)
T15 construct: purchased Carna Biosciences
Protocol: as §1

CDK6/CycD3 = CDK6/CycD3 (Homo sapiens, UniProt Q00534)
Protocol: as §1

p70S6K = p70S6K (Homo sapiens, UniProt P23443)
Protocol: as §1

EPHA8 = molecular target: T16, EPHA8 (Homo sapiens, UniProt P29322)
T16 construct: purchased Carna Biosciences
Protocol: as §1

CDC7/ASK = molecular target: T17, CDC7/ASK (Homo sapiens, UniProt O00311)
T17 construct: purchased Carna Biosciences
Protocol: as §1

EPHB2 = EPHB2 (Homo sapiens, UniProt P29323)
Protocol: as §1

CDK4/CycD3 = CDK4/CycD3 (Homo sapiens, UniProt P11802)
Protocol: as §1

LCK = LCK (Homo sapiens, UniProt P06239)
Protocol: as §1

JNK2 = JNK2 (Homo sapiens, UniProt P45984)
Protocol: as §1

AurB = AurB (Homo sapiens, UniProt Q96GD4)
Protocol: as §1

CK1α = CK1α (Homo sapiens, UniProt P48729)
Protocol: as §1

EGFR(T790M) = molecular target: T18, EGFR(T790M) (Homo sapiens, UniProt P00533, T790M)
T18 construct: purchased Carna Biosciences
Protocol: as §1

FLT3 = molecular target: T19, FLT3 (Homo sapiens, UniProt P36888)
T19 construct: purchased Carna Biosciences
Protocol: as §1

T19 sequence (P36888 27-993): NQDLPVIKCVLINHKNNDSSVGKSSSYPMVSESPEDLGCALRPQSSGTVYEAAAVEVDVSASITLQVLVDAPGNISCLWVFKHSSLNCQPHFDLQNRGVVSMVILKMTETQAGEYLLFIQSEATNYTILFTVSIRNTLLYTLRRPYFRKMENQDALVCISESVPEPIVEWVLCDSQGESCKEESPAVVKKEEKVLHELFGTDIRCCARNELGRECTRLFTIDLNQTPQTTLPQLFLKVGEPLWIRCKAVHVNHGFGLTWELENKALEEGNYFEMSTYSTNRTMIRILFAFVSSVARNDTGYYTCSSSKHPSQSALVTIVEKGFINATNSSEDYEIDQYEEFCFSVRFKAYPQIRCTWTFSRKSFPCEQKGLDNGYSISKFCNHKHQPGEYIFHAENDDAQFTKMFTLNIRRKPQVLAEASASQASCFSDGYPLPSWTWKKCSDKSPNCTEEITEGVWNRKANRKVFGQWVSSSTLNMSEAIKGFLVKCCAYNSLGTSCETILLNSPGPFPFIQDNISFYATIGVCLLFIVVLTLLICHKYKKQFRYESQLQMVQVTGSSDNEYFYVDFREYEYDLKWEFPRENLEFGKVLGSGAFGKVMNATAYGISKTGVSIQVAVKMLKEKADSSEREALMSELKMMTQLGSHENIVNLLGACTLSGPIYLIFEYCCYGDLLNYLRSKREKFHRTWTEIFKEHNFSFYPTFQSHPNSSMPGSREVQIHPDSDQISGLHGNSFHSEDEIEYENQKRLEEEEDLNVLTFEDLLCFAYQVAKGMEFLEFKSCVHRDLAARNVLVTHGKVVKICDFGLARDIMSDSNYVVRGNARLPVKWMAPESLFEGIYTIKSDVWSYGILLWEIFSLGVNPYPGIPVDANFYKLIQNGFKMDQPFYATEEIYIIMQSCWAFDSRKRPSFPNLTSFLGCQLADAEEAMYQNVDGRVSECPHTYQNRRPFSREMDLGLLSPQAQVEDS
DAPK1, sequence (P53355 whole entry): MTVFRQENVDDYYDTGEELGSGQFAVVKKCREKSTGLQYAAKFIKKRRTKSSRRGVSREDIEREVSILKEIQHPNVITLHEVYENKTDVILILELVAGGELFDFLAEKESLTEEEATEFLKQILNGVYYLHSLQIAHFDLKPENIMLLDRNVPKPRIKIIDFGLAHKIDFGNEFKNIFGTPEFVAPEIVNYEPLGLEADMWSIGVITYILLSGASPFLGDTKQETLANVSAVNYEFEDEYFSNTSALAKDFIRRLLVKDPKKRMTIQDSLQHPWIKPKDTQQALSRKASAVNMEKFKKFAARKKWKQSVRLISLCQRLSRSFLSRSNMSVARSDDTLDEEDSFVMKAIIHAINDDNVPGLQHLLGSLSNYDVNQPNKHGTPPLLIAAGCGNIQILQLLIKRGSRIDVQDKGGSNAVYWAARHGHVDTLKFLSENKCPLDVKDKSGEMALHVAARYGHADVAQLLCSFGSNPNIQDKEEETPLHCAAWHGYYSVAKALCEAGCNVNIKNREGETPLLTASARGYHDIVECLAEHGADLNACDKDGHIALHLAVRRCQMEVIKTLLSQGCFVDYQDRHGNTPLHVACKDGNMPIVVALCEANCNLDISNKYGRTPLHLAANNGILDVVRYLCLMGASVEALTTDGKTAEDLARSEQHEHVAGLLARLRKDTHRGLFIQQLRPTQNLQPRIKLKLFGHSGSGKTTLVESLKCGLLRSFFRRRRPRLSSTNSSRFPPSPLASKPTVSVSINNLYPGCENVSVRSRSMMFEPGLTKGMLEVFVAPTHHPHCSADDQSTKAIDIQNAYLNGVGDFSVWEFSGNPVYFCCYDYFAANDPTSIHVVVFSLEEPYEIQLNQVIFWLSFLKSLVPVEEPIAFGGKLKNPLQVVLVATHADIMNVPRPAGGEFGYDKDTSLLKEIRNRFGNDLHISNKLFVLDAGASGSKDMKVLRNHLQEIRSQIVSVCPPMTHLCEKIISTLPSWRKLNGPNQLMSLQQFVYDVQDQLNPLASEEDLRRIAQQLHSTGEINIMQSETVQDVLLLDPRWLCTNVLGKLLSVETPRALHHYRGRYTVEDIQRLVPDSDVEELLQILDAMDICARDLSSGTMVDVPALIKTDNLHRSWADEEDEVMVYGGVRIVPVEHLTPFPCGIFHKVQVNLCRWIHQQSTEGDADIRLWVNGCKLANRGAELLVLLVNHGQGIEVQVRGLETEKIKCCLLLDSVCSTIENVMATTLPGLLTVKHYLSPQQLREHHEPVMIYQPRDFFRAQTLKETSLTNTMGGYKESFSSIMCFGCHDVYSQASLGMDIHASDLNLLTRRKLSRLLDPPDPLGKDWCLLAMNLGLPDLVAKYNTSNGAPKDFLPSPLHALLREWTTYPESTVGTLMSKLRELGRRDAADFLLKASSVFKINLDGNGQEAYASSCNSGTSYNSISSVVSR
BTK, sequence (Q06187 whole entry): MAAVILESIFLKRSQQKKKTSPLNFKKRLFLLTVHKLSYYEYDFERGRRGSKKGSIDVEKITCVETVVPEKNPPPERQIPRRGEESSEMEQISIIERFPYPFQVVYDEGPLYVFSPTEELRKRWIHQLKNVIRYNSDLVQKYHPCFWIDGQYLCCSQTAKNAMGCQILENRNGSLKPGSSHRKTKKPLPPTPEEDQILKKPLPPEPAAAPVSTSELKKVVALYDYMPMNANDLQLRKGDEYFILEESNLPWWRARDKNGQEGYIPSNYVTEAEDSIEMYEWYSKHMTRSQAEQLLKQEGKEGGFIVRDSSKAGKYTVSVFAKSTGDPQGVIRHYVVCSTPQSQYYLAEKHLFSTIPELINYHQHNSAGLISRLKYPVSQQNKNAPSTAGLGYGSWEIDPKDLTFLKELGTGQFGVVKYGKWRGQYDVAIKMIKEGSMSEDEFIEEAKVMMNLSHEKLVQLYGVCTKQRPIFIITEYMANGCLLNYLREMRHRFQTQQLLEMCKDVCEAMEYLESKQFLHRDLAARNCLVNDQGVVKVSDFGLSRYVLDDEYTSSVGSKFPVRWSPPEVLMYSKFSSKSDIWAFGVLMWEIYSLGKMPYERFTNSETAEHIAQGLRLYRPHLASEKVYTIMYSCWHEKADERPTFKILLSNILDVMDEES
T6 sequence (P22607 23-806): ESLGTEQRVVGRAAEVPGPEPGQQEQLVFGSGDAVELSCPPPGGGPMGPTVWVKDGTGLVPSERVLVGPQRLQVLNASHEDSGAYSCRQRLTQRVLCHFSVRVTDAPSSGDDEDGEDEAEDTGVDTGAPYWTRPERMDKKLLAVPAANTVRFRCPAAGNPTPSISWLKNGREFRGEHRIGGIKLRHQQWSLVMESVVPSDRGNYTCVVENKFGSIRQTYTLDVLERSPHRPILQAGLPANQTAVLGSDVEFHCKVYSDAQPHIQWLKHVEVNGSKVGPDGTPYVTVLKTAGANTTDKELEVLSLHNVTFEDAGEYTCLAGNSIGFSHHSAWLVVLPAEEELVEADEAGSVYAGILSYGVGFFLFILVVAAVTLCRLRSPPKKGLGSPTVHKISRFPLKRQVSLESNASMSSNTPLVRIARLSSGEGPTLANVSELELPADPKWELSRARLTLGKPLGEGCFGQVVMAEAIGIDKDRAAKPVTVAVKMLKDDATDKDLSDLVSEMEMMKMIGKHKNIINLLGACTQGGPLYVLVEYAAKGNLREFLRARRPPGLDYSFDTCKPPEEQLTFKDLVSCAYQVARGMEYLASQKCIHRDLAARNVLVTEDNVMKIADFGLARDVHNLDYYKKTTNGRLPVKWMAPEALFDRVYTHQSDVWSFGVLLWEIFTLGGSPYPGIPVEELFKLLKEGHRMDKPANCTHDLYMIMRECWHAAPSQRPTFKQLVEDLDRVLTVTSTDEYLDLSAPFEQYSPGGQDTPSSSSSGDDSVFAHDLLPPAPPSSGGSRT
T17 sequence (O00311 whole entry): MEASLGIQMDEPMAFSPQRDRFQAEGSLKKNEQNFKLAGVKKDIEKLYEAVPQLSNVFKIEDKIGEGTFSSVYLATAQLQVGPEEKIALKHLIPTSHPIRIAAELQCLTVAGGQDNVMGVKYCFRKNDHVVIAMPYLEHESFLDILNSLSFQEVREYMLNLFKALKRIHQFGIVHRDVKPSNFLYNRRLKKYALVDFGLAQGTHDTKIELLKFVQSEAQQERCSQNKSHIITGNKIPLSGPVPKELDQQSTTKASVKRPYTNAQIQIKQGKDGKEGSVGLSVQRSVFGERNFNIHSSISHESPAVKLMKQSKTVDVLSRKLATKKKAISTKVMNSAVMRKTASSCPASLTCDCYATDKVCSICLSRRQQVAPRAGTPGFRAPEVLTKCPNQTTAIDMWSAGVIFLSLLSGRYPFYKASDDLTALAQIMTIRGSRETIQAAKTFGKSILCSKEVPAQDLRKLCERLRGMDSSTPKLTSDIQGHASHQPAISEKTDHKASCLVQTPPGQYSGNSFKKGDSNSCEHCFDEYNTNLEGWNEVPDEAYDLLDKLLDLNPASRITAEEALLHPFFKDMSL
T17 sequence (Q9UBU7 whole entry partner): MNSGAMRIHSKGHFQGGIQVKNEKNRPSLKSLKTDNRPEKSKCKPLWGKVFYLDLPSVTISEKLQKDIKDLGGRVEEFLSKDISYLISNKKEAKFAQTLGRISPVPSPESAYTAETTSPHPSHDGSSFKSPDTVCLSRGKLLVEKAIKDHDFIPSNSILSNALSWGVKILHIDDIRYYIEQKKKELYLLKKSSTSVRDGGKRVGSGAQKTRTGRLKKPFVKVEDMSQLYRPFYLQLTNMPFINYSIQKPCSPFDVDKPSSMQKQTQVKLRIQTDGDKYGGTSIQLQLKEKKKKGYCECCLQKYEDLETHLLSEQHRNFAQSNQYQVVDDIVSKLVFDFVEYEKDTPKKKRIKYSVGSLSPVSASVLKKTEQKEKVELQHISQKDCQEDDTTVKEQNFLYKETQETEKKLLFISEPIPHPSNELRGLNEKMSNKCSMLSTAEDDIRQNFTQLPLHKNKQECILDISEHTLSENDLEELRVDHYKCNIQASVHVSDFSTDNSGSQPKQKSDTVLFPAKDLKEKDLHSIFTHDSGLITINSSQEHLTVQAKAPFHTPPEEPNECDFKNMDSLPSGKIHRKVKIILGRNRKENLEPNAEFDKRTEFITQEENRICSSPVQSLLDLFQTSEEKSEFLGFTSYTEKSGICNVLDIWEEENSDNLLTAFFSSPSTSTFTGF

## C[C@@H](N)COc1ccc(-c2cnc3ccc(N[C@H](C)c4cccc(F)c4)nn23)cc1.O=C(O)CCCCC(=O)O [DS-6051b]
DAPK1
  inhibition at 0.2 µM: -0.6%
RON
  inhibition at 0.2 µM: 9.2%
p38δ
  inhibition at 0.2 µM: -1.3%
FGFR4
  inhibition at 0.2 µM: 3.7%
CDK2/CycE1
  inhibition at 0.2 µM: -20.2%
BTK
  inhibition at 0.2 µM: 17.9%
EGFR(d746-750)
  inhibition at 0.2 µM: -3.4%
SGK
  inhibition at 0.2 µM: -3.8%
RSK4
  inhibition at 0.2 µM: -5.4%
INSR
  inhibition at 0.2 µM: 9.4%
FGFR3
  inhibition at 0.2 µM: 1.3%
NEK2
  inhibition at 0.2 µM: -0.8%
BMX
  inhibition at 0.2 µM: 10%
FER
  inhibition at 0.2 µM: 5.5%
SRC
  inhibition at 0.2 µM: 9%
SRM
  inhibition at 0.2 µM: -3.1%
CLK1
  inhibition at 0.2 µM: 2%
AMPKα1/β1/γ1
  inhibition at 0.2 µM: -3.6%
GSK3β
  inhibition at 0.2 µM: -23.2%
PKCε
  inhibition at 0.2 µM: 18.8%
HER2
  inhibition at 0.2 µM: 8.7%
ARG
  inhibition at 0.2 µM: -0.122%
CHK2
  inhibition at 0.2 µM: 0.3%
ROCK1
  inhibition at 0.2 µM: -4.5%
AurC
  inhibition at 0.2 µM: -19%
CSK
  inhibition at 0.2 µM: 1%
EPHB4
  inhibition at 0.2 µM: -6.2%
AXL
  inhibition at 0.2 µM: 18%
EGFR(L861Q)
  inhibition at 0.2 µM: -3.6%
EPHA4
  inhibition at 0.2 µM: -3.4%
CDK6/CycD3
  inhibition at 0.2 µM: 2.1%
p70S6K
  inhibition at 0.2 µM: 8.3%
EPHA8
  inhibition at 0.2 µM: -9.1%
CDC7/ASK
  inhibition at 0.2 µM: 8.5%
EPHB2
  inhibition at 0.2 µM: -1.7%
CDK4/CycD3
  inhibition at 0.2 µM: -0.7%
LCK
  inhibition at 0.2 µM: 0.27%
JNK2
  inhibition at 0.2 µM: -5.1%
AurB
  inhibition at 0.2 µM: -12.2%
CK1α
  inhibition at 0.2 µM: -1%
EGFR(T790M)
  inhibition at 0.2 µM: -1.6%
FLT3
  inhibition at 0.2 µM: 18.8%
